Measurements published in patent US11000033B2, “Ketone or oxime compound, and herbicide” (NISSAN CHEMICAL CORPORATION, priority 2014, dated 2021).

What was measured:
Type in all cases: in vivo
[1] = test system: Scirpus juncoides; test: Test Example 1: herbicidal activity, application before weed generation in submerged conditions (symbol B); settings: application herbicide amount 320 g/ha
Procedure, shortened: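 Application before weed emergence: an aqueous dilution of the emulsion formulation was poured onto the surface of 4 cm-deep floodwater on the day of sowing. Effect was judged after 3 weeks (greenhouse, 25–30 °C).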

[2] = test system: Monochoria vaginalis; test: Test Example 2: herbicidal activity, application during weed generation in submerged conditions (symbol C); settings: Table 23; application herbicide amount 320 g/ha; grade 0-5 by criteria of Test Example 1
Procedure, shortened: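 Weeds emerging under flooded conditions were treated with compound formulated as an emulsion and diluted with water to the intended herbicide amount, poured onto the surface of 4 cm standing water. Seeds had been co-sown in alluvial soil; plants grew at 25° C. to 30° C. and were assessed after 3 weeks.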

[3] = test system: directly sowed rice plant; test: Test Example 3: effect on crop by foliage application, Wagner pot (symbol b); settings: application herbicide amount 320 g/ha; for b (directly sowed rice plant) effect on crop grade: Table 24
Procedure, shortened: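 Greenhouse culture at 25–30 °C of seeded rice, Cyperus difformis, Leptochloa chinensis and Echinochloa crus-galli var. crus-galli, in alluvial soil held under 0.1–0.5 cm of water in a Wagner pot.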

[4] = test system: Digitaria ciliaris; test: Test Example 4: herbicidal effect by soil treatment (symbol F); settings: for Herbicidal effect grade, F: Digitaria ciliaris: application herbicide amount 320 g/ha
Procedure, shortened: (§1)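 Seeds were sown in sterilized diluvial soil, covered with about 1.5 cm of soil, and the soil surface was sprayed with a water-diluted emulsion of the compound at a predetermined rate. Plants grew in a greenhouse at 25° C. to 30° C.; effects were scored visually 3 weeks after application.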

[5] = test system: Setaria viridis; test: Test Example 4: herbicidal effect by soil treatment (symbol G); settings: for Herbicidal effect grade, G: Setaria viridis: application herbicide amount 320 g/ha
Procedure, shortened: as §1

[6] = test system: Echinochloa crus-galli var. crus-galli; test: Test Example 4: herbicidal effect by soil treatment (symbol H); settings: for Herbicidal effect grade, H: Echinochloa crus-galli var. crus-galli: application herbicide amount 320 g/ha
Procedure, shortened: as §1

[7] = test system: Stellaria media; test: Test Example 4: herbicidal effect by soil treatment (symbol P); settings: for Herbicidal effect grade, P: Stellaria media: application herbicide amount 320 g/ha
Procedure, shortened: as §1

[8] = test system: Veronica persica; test: Test Example 4: herbicidal effect by soil treatment (symbol R); settings: for Herbicidal effect grade, R: Veronica persica: application herbicide amount 320 g/ha
Procedure, shortened: as §1

[9] = test system: soybean; test: Test Example 4: effect on crop by soil treatment (symbol d); settings: for Effect on crop grade, d: soybean: application herbicide amount 320 g/ha
Procedure, shortened: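 Diluvial soil (sterilized) in boxes; seeds placed spot-wise alongside weed species; ~1.5 cm covering soil. Greenhouse, 25–30° C.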

[10] = test system: Setaria viridis; test: Test Example 5: herbicidal effect by foliage application, plastic box (symbol G); settings: 320 g/ha, 3 weeks after application
Procedure, shortened: (§2)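 Herbicide, formulated as an emulsion and diluted in water, is sprayed onto the aerial parts of 14-day seedlings. These were grown at 25° C. to 30° C. in sterilized diluvial soil; effects are graded after 3 weeks.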

[11] = test system: Echinochloa crus-galli var. crus-galli; test: Test Example 5: herbicidal effect by foliage application, plastic box (symbol H); settings: 320 g/ha, 3 weeks after application
Procedure, shortened: as §2

[12] = test system: Galium spurium; test: Test Example 5: herbicidal effect by foliage application, plastic box (symbol Q); settings: 320 g/ha, 3 weeks after application
Procedure, shortened: as §2

[13] = test system: soybean; test: Test Example 5: effect on crop by foliage application, plastic box (symbol d); settings: 320 g/ha, 3 weeks after application
Procedure, shortened: (§3)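 Crop seed is sown alongside grass and broadleaf weed species in spots in sterilized diluvial soil, then covered to a depth of about 1.5 cm. Plants grow in a greenhouse kept at 25° C. to 30° C.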

[14] = test system: beet; test: Test Example 5: effect on crop by foliage application, plastic box (symbol f); settings: 320 g/ha, 3 weeks after application
Procedure, shortened: as §3

[15] = test system: rapeseed; test: Test Example 5: effect on crop by foliage application, plastic box (symbol g); settings: 320 g/ha, 3 weeks after application
Procedure, shortened: as §3

Row | Structure (SMILES) | B (Scirpus juncoides) herbicidal effect grade [1] | Herbicidal effect grade, C: Monochoria vaginalis [2] | b (directly sowed rice plant) effect on crop grade [3] | Herbicidal effect grade, F: Digitaria ciliaris [4] | Herbicidal effect grade, G: Setaria viridis [5] | Herbicidal effect grade, H: Echinochloa crus-galli var. crus-galli [6] | Herbicidal effect grade, P: Stellaria media [7] | Herbicidal effect grade, R: Veronica persica [8] | Effect on crop grade, d: soybean [9] | G: Setaria viridis, herbicidal effect grade [10] | H: Echinochloa crus-galli var. crus-galli, herbicidal effect grade [11] | Q: Galium spurium, herbicidal effect grade [12] | d: soybean, effect on crop grade [13] | f: beet, effect on crop grade [14] | g: rapeseed, effect on crop grade [15] | other results
1 | CC#Cc1cc(C)c(C2=C(O)CC(CC(=NOC)C3CC3)C2=O)c(C)c1 (stereo not drawn) [9-008] | 5 (Herbicidal ratio of 90% or more (almost completely withered)) | 3 (Herbicidal ratio of 40% or higher and lower than 70%) | 5 (Herbicidal ratio of 90% or more (almost completely withered)) | 5 (Herbicidal ratio of 90% or more (almost completely withered)) | 5 (Herbicidal ratio of 90% or more (almost completely withered)) | 5 (Herbicidal ratio of 90% or more (almost completely withered)) | 0 (Herbicidal ratio of 5% or lower (almost no effect)) | 3 (Herbicidal ratio of 40% or higher and lower than 70%) | 0 (Herbicidal ratio of 5% or lower (almost no effect)) | 5 (Herbicidal ratio of 90% or more (almost completely withered)) | 5 (Herbicidal ratio of 90% or more (almost completely withered)) | 2 (Herbicidal ratio of 20% or higher and lower than 40%) | 3 (Herbicidal ratio of 40% or higher and lower than 70%) | 0 (Herbicidal ratio of 5% or lower (almost no effect)) | 4 (Herbicidal ratio of 70% or higher and lower than 90%) | –
2 | COCCON=C(CC1CC(O)=C(c2c(C)cc(Br)cc2C)C1=O)C1CC1 (stereo not drawn) [9-019] | 0 (Herbicidal ratio of 5% or lower (almost no effect)) | 0 (Herbicidal ratio of 5% or lower (almost no effect)) | 5 (Herbicidal ratio of 90% or more (almost completely withered)) | 0 (Herbicidal ratio of 5% or lower (almost no effect)) | 5 (Herbicidal ratio of 90% or more (almost completely withered)) | 0 (Herbicidal ratio of 5% or lower (almost no effect)) | 0 (Herbicidal ratio of 5% or lower (almost no effect)) | 0 (Herbicidal ratio of 5% or lower (almost no effect)) | 0 (Herbicidal ratio of 5% or lower (almost no effect)) | 5 (Herbicidal ratio of 90% or more (almost completely withered)) | 5 (Herbicidal ratio of 90% or more (almost completely withered)) | 0 (Herbicidal ratio of 5% or lower (almost no effect)) | 0 (Herbicidal ratio of 5% or lower (almost no effect)) | 0 (Herbicidal ratio of 5% or lower (almost no effect)) | 1 (Herbicidal ratio of 5% or higher and lower than 20%) | –
3 | CON=C(C)CC1C(O)=C(c2c(C)cc(C)cc2C)C(=O)C1C (mixture of isomers) [12-002] | 3 (Herbicidal ratio of 40% or higher and lower than 70%) | 1 (Herbicidal ratio of 5% or higher and lower than 20%) | 5 (Herbicidal ratio of 90% or more (almost completely withered)) | 4 (Herbicidal ratio of 70% or higher and lower than 90%) | 5 (Herbicidal ratio of 90% or more (almost completely withered)) | 5 (Herbicidal ratio of 90% or more (almost completely withered)) | 0 (Herbicidal ratio of 5% or lower (almost no effect)) | 0 (Herbicidal ratio of 5% or lower (almost no effect)) | 0 (Herbicidal ratio of 5% or lower (almost no effect)) | 5 (Herbicidal ratio of 90% or more (almost completely withered)) | 5 (Herbicidal ratio of 90% or more (almost completely withered)) | 4 (Herbicidal ratio of 70% or higher and lower than 90%) | 1 (Herbicidal ratio of 5% or higher and lower than 20%) | 3 (Herbicidal ratio of 40% or higher and lower than 70%) | 5 (Herbicidal ratio of 90% or more (almost completely withered)) | –
4 | Cc1cc(Br)cc(C)c1C1=C(O)CC(CC(=O)C(C)C)C1=O (racemic) [10-003] | 0 (Herbicidal ratio of 5% or lower (almost no effect)) | 0 (Herbicidal ratio of 5% or lower (almost no effect)) | 5 (Herbicidal ratio of 90% or more (almost completely withered)) | 0 (Herbicidal ratio of 5% or lower (almost no effect)) | 4 (Herbicidal ratio of 70% or higher and lower than 90%) | 5 (Herbicidal ratio of 90% or more (almost completely withered)) | 0 (Herbicidal ratio of 5% or lower (almost no effect)) | 0 (Herbicidal ratio of 5% or lower (almost no effect)) | 0 (Herbicidal ratio of 5% or lower (almost no effect)) | 5 (Herbicidal ratio of 90% or more (almost completely withered)) | 5 (Herbicidal ratio of 90% or more (almost completely withered)) | 0 (Herbicidal ratio of 5% or lower (almost no effect)) | 0 (Herbicidal ratio of 5% or lower (almost no effect)) | 0 (Herbicidal ratio of 5% or lower (almost no effect)) | 0 (Herbicidal ratio of 5% or lower (almost no effect)) | –
5 | CON=C(C)CON=C(C)CC1CC(O)=C(c2c(C)cc(C)cc2C)C1=O (stereo not drawn) [1-105] | – | 3 (Herbicidal ratio of 40% or higher and lower than 70%) | – | – | – | – | – | – | – | – | – | – | – | – | – | Herbicidal effect grade, B: Scirpus juncoides [1]: 5 (Herbicidal ratio of 90% or more (almost completely withered)); effect on crop b (directly sowed rice plant), grade 0-5 [3]: 5 (Herbicidal ratio of 90% or more (almost completely withered)); F: Digitaria ciliaris, herbicidal effect grade ([4]; 320 g/ha): 5 (Herbicidal ratio of 90% or more (almost completely withered)); G: Setaria viridis, herbicidal effect grade ([5]; 320 g/ha): 5 (Herbicidal ratio of 90% or more (almost completely withered)); H: Echinochloa crus-galli var. crus-galli, herbicidal effect grade ([6]; 320 g/ha): 5 (Herbicidal ratio of 90% or more (almost completely withered)); P: Stellaria media, herbicidal effect grade ([7]; 320 g/ha): 0 (Herbicidal ratio of 5% or lower (almost no effect)); R: Veronica persica, herbicidal effect grade ([8]; 320 g/ha): 0 (Herbicidal ratio of 5% or lower (almost no effect)); d: soybean, effect grade on crop ([9]; 320 g/ha): 0 (Herbicidal ratio of 5% or lower (almost no effect)); G: Setaria viridis, herbicidal effect (criteria 0-5) [10]: 5 (Herbicidal ratio of 90% or more (almost completely withered)); H: Echinochloa crus-galli var. crus-galli, herbicidal effect (criteria 0-5) [11]: 5 (Herbicidal ratio of 90% or more (almost completely withered)); Q: Galium spurium, herbicidal effect (criteria 0-5) [12]: 2 (Herbicidal ratio of 20% or higher and lower than 40%); d: soybean, effect on crop (criteria 0-5) [13]: 1 (Herbicidal ratio of 5% or higher and lower than 20%); f: beet, effect on crop (criteria 0-5) [14]: 0 (Herbicidal ratio of 5% or lower (almost no effect)); g: rapeseed, effect on crop (criteria 0-5) [15]: 4 (Herbicidal ratio of 70% or higher and lower than 90%)
